Measurements as given in publication PMC4413848, “Antibacterial activity of alkyl gallates is a combination of direct targeting of FtsZ and permeabilization of bacterial membranes” (Frontiers in Microbiology, 2015).

Tests used:
FtsZ [1] = target: T1, FtsZ (Bacillus subtilis, UniProt P17865); test: fluorescence titration (intrinsic alkyl gallate fluorescence) with purified FtsZ; also GTPase inhibition and sedimentation; format: binding
T1 sequence (P17865 1-382): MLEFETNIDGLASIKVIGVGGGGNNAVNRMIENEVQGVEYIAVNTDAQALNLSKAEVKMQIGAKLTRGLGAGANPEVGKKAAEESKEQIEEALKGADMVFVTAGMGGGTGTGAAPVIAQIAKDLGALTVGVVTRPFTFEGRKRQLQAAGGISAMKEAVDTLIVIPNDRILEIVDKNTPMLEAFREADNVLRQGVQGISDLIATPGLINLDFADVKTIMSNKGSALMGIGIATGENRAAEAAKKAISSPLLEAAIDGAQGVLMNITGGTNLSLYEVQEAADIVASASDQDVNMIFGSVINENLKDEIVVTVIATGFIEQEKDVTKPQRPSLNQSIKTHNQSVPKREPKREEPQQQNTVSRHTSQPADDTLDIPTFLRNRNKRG

FtsZ [2] = target: T1, FtsZ; test: malachite green GTPase assay at […] with Triton X-100 (Kd could not be calculated); format: biochemical
FtsZ [3] = target: T1, FtsZ; test: fluorescence titration with purified FtsZ (poorer fit, R^[…] = […]); also GTPase inhibition and sedimentation; format: binding

Structure (SMILES) | Kd (FtsZ [1]) [nM] | other results
CCCCCCCCOC(=O)c1cc(O)c(O)c(O)c1 [compound 11, Octyl gallate] | 840 ± 220 | –
CCCCCCOC(=O)c1cc(O)c(O)c(O)c1 [compound 9, Hexyl gallate] | – | malachite green GTPase assay at 50 μg/mL with Triton X-100 (Kd could not be calc) (FtsZ [2]): All of the compounds showed similar levels of inhibition of the GTPase activity of FtsZ.
CCCCCCCOC(=O)c1cc(O)c(O)c(O)c1 [compound 10, Heptyl gallate] | 80 ± 30 | –
CCCCCOC(=O)c1cc(O)c(O)c(O)c1 [compound 8, Pentyl gallate] | – | Kd (FtsZ [3]): ~3100 nM
